In PMC4896931, “The discovery of 2-substituted phenol quinazolines as potent RET kinase inhibitors with improved KDR selectivity” (European Journal of Medicinal Chemistry, 2016):
Counter-ions that a name gives are not always drawn.

Key:
KDR = KDR (Homo sapiens, UniProt P35968)
[1] = biological target: T1, BaF3 cells expressing KIF5B-RET (Homo sapiens, UniProt P07949+P33176)
T1 sequence (P33176+P07949 with tags, fused parts or gaps): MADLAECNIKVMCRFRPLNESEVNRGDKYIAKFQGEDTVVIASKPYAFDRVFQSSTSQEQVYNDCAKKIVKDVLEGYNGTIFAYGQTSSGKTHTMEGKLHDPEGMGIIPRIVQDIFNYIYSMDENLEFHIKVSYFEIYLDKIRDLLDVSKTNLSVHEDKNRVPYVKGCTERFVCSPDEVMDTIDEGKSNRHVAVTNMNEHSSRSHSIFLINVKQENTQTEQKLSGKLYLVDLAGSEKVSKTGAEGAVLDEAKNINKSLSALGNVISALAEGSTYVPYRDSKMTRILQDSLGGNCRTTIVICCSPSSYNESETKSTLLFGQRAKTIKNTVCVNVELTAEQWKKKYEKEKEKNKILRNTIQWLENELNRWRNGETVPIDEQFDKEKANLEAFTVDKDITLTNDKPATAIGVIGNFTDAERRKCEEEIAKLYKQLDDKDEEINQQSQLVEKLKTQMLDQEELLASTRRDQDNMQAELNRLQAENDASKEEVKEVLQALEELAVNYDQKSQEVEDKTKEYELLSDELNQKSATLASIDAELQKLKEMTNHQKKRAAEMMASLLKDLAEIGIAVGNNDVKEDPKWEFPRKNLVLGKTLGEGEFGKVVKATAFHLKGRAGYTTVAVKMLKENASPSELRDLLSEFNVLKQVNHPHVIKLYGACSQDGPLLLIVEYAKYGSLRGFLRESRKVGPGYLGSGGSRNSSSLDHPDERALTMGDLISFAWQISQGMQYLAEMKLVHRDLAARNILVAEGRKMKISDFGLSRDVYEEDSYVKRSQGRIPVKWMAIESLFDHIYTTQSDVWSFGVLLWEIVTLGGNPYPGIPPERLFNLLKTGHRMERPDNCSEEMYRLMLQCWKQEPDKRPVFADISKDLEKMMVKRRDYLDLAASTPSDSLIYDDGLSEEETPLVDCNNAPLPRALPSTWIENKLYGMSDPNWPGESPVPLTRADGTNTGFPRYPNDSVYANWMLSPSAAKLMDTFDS

[2] = Human hepatocyte stability; format: in vitro ADME; settings: human hepatocytes
in vitro = settings: mouse
[3] = Mouse hepatocyte stability; format: in vitro ADME; settings: mouse hepatocytes
Aqueous solubility = format: physicochemical; settings: aqueous medium (not further specified)
Caco-2 permeability = format: in vitro ADME; settings: human; Caco-2 cells
[4] = Mouse pharmacokinetics (intravenous and oral); format: in vivo, male CD-1 mice
Procedure: All studies were conducted after review by the Animal Welfare and Ethical Review Body at CRUK:MI and in accordance with the University of Manchester Policy on the use of animals in research. All work was carried out in compliance with the Animals (Scientific Procedures) Act 1986. Pharmacokinetics were studied in male CD-1 mice following single intravenous or oral administration. Blood samples were collected as dried blood spots and assayed following solvent extraction through a phospholipid removal plate followed by LC-MS/MS analysis. The resulting concentration-time data were analysed by non-compartmental methods (PK Solver, Excel Add-In).

[5] = non-modified (wild-type, non RET-driven) BaF3 cells

Chain of KDR (P35968 20-1356): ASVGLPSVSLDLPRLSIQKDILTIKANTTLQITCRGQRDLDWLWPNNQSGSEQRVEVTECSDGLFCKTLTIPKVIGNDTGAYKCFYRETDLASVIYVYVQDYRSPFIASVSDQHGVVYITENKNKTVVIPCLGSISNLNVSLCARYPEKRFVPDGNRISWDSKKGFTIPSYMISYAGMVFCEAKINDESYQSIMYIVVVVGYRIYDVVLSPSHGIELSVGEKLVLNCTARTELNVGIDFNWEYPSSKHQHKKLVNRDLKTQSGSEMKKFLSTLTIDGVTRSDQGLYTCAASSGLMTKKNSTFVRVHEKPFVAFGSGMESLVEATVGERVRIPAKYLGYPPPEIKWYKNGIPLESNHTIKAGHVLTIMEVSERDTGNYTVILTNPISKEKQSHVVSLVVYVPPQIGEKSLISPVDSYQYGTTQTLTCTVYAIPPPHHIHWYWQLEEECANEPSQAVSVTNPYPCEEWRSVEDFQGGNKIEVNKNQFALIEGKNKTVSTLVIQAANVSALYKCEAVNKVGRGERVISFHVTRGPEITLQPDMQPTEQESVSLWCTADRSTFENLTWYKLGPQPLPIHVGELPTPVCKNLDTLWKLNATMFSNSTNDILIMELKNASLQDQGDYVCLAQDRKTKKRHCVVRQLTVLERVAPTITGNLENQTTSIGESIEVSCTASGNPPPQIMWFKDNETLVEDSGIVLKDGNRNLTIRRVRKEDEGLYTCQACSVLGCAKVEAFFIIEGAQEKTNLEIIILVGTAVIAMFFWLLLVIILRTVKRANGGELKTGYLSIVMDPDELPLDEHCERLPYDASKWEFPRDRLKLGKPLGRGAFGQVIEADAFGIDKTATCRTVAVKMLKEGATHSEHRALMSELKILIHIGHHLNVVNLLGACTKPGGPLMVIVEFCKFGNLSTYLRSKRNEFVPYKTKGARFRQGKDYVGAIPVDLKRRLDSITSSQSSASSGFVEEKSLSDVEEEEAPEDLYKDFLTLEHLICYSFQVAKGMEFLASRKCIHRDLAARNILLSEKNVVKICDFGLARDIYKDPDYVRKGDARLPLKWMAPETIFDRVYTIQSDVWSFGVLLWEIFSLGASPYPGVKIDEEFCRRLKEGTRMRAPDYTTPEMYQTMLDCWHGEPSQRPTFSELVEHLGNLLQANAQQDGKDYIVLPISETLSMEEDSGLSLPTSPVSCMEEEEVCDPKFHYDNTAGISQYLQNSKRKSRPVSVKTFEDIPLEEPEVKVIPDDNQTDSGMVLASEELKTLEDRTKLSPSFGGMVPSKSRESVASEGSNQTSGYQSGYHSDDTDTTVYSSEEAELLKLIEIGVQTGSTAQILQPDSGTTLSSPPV

Structure (SMILES)	IC50 (KDR)	IC50 [1]	hepatocyte CLint [2]	other results
COc1cc2ncnc(Nc3ccc(C)c(O)c3)c2cc1OC [Compound 20]	18 nM	500 nM		
COc1cc2ncnc(Nc3ccc(Br)cc3F)c2cc1OC [Compound 4]	460 nM	1700 nM		
COc1cc2ncnc(Nc3cccc(O)c3C#N)c2cc1OC [Compound 18, 2-((6,7-Dimethoxyquinazolin-4-yl)amino)-6-hydroxybenzonitrile]	> 10000 nM			
COc1cc2ncnc(Oc3cccc(O)c3)c2cc1OC [Compound 42, 3-((6,7-Dimethoxyquinazolin-4-yl)oxy)phenol]	150 nM	620 nM		
COc1cc2ncnc(Nc3cc(O)c(C)cc3F)c2cc1OC [Compound 30]	2.3 nM	41 nM	91.9 µL/min/1e6 cells	IC50 at 48 h (in vitro; [5]): > 1000 nM
COc1cc2ncnc(Nc3c(Cl)ccc(O)c3Cl)c2cc1OC [Compound 39, 2,4-Dichloro-3-((6,7-dimethoxyquinazolin-4-yl)amino)phenol]	1400 nM			
COc1cc2ncnc(Nc3cc(F)cc(O)c3C)c2cc1OC [Compound 35, 3-((6,7-Dimethoxyquinazolin-4-yl)amino)-5-fluoro-2-methylphenol hydrochloride]			54.8 µL/min/1e6 cells	IC50 at 48 h (in vitro; [5]): > 10000 nM
COc1cc2ncnc(Nc3cccc(N)c3)c2cc1OC [Compound 8]	7600 nM			
COc1cc2ncnc(Nc3cccc(O)c3O)c2cc1OC [Compound 10, 3-((6,7-Dimethoxyquinazolin-4-yl)amino)benzene-1,2-diol hydrochloride]			95.5 µL/min/1e6 cells	IC50 at 48 h (in vitro; [5]): > 10000 nM
COc1cccc(Nc2ncnc3cc(OC)c(OC)cc23)c1 [Compound 9]	4800 nM			
COc1cc2ncnc(Nc3cccc(O)c3F)c2cc1OC [Compound 14, 3-((6,7-Dimethoxyquinazolin-4-yl)amino)-2-fluorophenol]	280 nM			
COc1cc2ncnc(Nc3cccc(O)c3Cl)c2cc1OC [Compound 12, 2-Chloro-3-((6,7-dimethoxyquinazolin-4-yl)amino)phenol hydrochloride]			174 µL/min/1e6 cells	IC50 at 48 h (in vitro): > 10000 nM
COc1cc2ncnc(Nc3cc(O)c(F)cc3F)c2cc1OC [Compound 28]	9.5 nM	53 nM		
COc1cc2ncnc(Nc3c(F)ccc(O)c3Cl)c2cc1OC [Compound 40, 2-Chloro-3-((6,7-dimethoxyquinazolin-4-yl)amino)-4-fluorophenol]	1100 nM		66.7 µL/min/1e6 cells	IC50 at 48 h (in vitro): > 10000 nM
COc1cc2ncnc(Nc3cccc(O)c3OC)c2cc1OC [Compound 15, 3-((6,7-Dimethoxyquinazolin-4-yl)amino)-2-methoxyphenol]	> 10000 nM			
COc1cc2ncnc(Nc3cccc(O)c3C)c2cc1OC [Compound 13, 3-((6,7-Dimethoxyquinazolin-4-yl)amino)-2-methylphenol hydrochloride]			28.4 µL/min/1e6 cells	IC50 at 48 h (in vitro): > 10000 nM
COc1cc2ncnc(Nc3c(Cl)ccc(O)c3C)c2cc1OC [Compound 37, 4-Chloro-3-((6,7-dimethoxyquinazolin-4-yl)amino)-2-methylphenol]	> 10000 nM	3600 nM		
COc1cc2ncnc(Nc3cccc(O)c3C(F)(F)F)c2cc1OC [Compound 17, 3-((6,7-Dimethoxyquinazolin-4-yl)amino)-2-(trifluoromethyl)phenol]	> 10000 nM			
COc1cc2ncnc(Nc3cc(O)ccc3Cl)c2cc1OC [Compound 26, 4-Chloro-3-((6,7-dimethoxyquinazolin-4-yl)amino)phenol]	71 nM	85 nM		
COc1cc2ncnc(Nc3cccc(O)c3Br)c2cc1OC [Compound 11, 2-Bromo-3-((6,7-dimethoxyquinazolin-4-yl)amino)phenol hydrochloride]			157 µL/min/1e6 cells	IC50 at 48 h (in vitro; [5]): > 10000 nM
COc1cc2ncnc(Nc3ccc(Cl)c(O)c3)c2cc1OC [Compound 21]	58 nM	940 nM		
COc1cc2ncnc(Nc3cccc(O)c3)c2cc1OC [Compound 6]			76.9 µL/min/1e6 cells	IC50 at 48 h (in vitro; [5]): > 10000 nM
COc1cc2ncnc(Nc3c(F)ccc(O)c3F)c2cc1OC [Compound 33, 3-((6,7-Dimethoxyquinazolin-4-yl)amino)-2,4-difluorophenol]	69 nM	120 nM	68.9 µL/min/1e6 cells	IC50 at 48 h (in vitro; [5]): > 10000 nM
COc1cc2ncnc(Nc3ccc(O)cc3)c2cc1OC [Compound 7]	2800 nM			
COc1cc2ncnc(Nc3c(Cl)ccc(O)c3F)c2cc1OC [Compound 34, 4-Chloro-3-((6,7-dimethoxyquinazolin-4-yl)amino)-2-fluorophenol]			93.3 µL/min/1e6 cells	IC50 at 48 h (in vitro): > 10000 nM
COc1cc2ncnc(Nc3c(F)ccc(O)c3C)c2cc1OC [Compound 36, 3-((6,7-Dimethoxyquinazolin-4-yl)amino)-4-fluoro-2-methylphenol hydrochloride]			20.9 µL/min/1e6 cells	hepatocyte CLint [3]: 38.1 µL/min/1e6 cells; solubility (Aqueous solubility): > 100 µM; Papp (Caco-2 permeability): 8.2 ×10⁻⁶ cm/s; Total blood clearance ([4]; intravenous): < 10 % LBF; Oral half-life ([4]; oral): approximately 2 h; bioavailability ([4]; oral): approximately 35%
COc1cc2ncnc(Nc3cc(O)ccc3F)c2cc1OC [Compound 25]	20 nM	53 nM		
